Structures are written as SMILES.

One may read the melting point as the temperature, or range, at which the solid turns liquid.

`CC(C)S(=O)(=O)NCC(C)(F)c1ccc(-c2cccc3c2CC(=O)N3)cc1` (configuration not stated) registered a melting point of 86 to 87 °C.
With `COc1ccnc(C(C)Sc2nc3cc(OC(F)F)c(C)cc3[nH]2)c1` (configuration not stated) the figure was 183 to 184 °C; with `c1cc(NC2=NCCS2)c2occc2c1`, 143 to 145 °C; with `CC(C)(Sc1cc(C(C)(C)C)c(O)c(C(C)(C)C)c1)Sc1cc(C(C)(C)C)c(OCCC(O)C(O)CCO)c(C(C)(C)C)c1` (configuration not stated), 75 to 77 °C.
In the case of `COc1cc(C(=O)O)c(N)cc1OCc1ccccc1`, the melting point lay in the range of 159 to 161 °C.
Under `CN1CCC(c2c[nH]c3ccc(C(=O)Cc4ccccc4)cc23)CC1` stands 69 °C.
Under `CC(C)OC(=O)c1cc(-n2c(=O)c3c(n(C)c2=O)CCCC3)c(F)cc1Cl` stands 113 to 115 °C; under `COc1cc(N)c2c(c1)C(=O)CCN2`, 107 to 110 °C.
With `Cc1ccc([C@@H]2c3c(C)c(N4C(=O)CC(c5ccc(F)cc5)CC4=O)c(C)c(C)c3OC2(C)C)cc1` the figure was 151 to 154 °C.
`Cc1noc(NS(=O)(=O)c2ccsc2C(=O)Nc2ccc(C(C)(C)C)cc2)c1Br` returned a melting point of 76 to 86 °C.
With `CS(=O)(=O)CC(=O)CCc1ccccc1` the figure was 97.6 to 98.4 °C; with `Cc1ccc(C(=O)c2cc(-c3ccccc3)c(N3CCOCC3)s2)cc1`, 198 °C; with `CC(C)(C)OC(=O)N1C[C@@H](Sc2ccccc2)C[C@H]1C(=O)O`, 110 to 118 °C.
Under `COc1ccc(-c2ccccc2)c2ccc(C)nc12` stands 133 to 134 °C; under `CCOC(=O)c1cnc2ccc(Cl)cc2c1Cl`, 87 to 88 °C.
For `CN1CCN(c2ccc3nnn(Cc4ccc5ncccc5c4)c3n2)CC1`, the melting point is 131 to 133 °C.
With `COc1ccc(C2=CCN(Cc3n[nH]c4c(F)c(F)ccc34)CC2)cc1` the figure was 195 to 197 °C.
Under `CN(C(=O)COc1cc(C(F)(F)C(F)(F)F)no1)c1ccccc1` stands 88 to 89 °C; under `CCn1c(=O)c(-c2c(Cl)cccc2Cl)cc2cnc(Nc3cc(OC)c(OC)c(OC)c3)nc21`, 275 to 278 °C; under `CC(n1ncnn1)C(F)(c1ccc(OC(F)(F)F)cc1)c1ccc(OC(F)(F)F)cc1` (configuration not stated), 68 to 70 °C.
With `O=C(O)CCc1cn(Cc2cc(OCc3csc(-c4ccccc4)n3)cc(OCc3csc(-c4ccccc4)n3)c2)cc1-c1ccccc1` the figure was 78 to 79 °C; with `O=C(O)c1ccc(NCCCCCc2ccccc2)cc1`, 141 to 143 °C; with `OC[C@@H]1Cc2ccccc2CN1C(=S)Nc1cccc2cnccc12`, 190 °C.
In turn, `CCOC(=O)CNC(=O)c1cc(F)c(F)cc1N` had a melting point of 147 °C.
With `COC(=O)c1cnc2cccc(O)c2c1` the figure was 200 °C; with `COC(=O)c1ccc(Cc2cc3cc(C(F)(F)F)ccc3n2S(=O)(=O)c2ccc3c(c2)N(C)CCO3)cc1`, 63 °C.
Under `COc1ccc(Sc2cnnc3ccccc23)cc1` stands 163 °C; under `Cc1ncc(C#N)c(Nc2ccc3[nH]ccc3c2C)c1-c1cc2cc(CN3CCN(C)CC3)ccc2o1`, 218 to 220 °C; under `CSC(Cc1ccc2oc(Cc3nc(-c4cccc(C)c4)oc3C)cc2c1)C(=O)O` (configuration not stated), 125 to 127 °C.
With `Cc1cc(-c2ccc(OCc3ccncc3)cc2)cc2ccc(=O)[nH]c12` the figure was 270 to 274 °C.
For the compound `CN(C)C=NS(=O)(=O)c1cc(Br)cc(Br)c1`, the melting point lay within 157 to 158 °C.
Under `Cc1cn(-c2cc(NC(=O)c3ccc(Cl)c(C#Cc4ccc(NC5CCC5)nn4)c3)cc(C(F)(F)F)c2)cn1` stands 225 to 227 °C; under `CC(C)c1ccc2c(c1)C(=O)c1ccc(-c3nnn(C)n3)cc1S2(=O)=O`, 219 to 221 °C.
Under `c1ccc(CSc2ccccc2Cn2cncn2)cc1` stands 65 to 68 °C; under `CC(C)n1c(=Nc2ccccc2)sc2ncccc2c1=O`, 85 to 86 °C.
With `COc1c(C)c(C)c(OC)c(CN2C(=O)[C@H]3CCC[C@H]3Nc3ccccc32)c1C` (relative stereo) the figure was 175 to 176 °C; with `Nc1cnccc1CCCOc1cccnc1Oc1cccc(Cl)c1`, 140 to 142 °C; with `Cn1cc(C(=O)NCc2ccc(Cl)cc2)c(=O)c2cc(CN3CCOCC3)cc(C#CCCCO)c21`, 179 to 182 °C.
Compound `CC(C)(C)c1cc(C(=O)Oc2ccc(C(=O)c3cc(C(C)(C)C)c(O)c(C(C)(C)C)c3)c(O)c2)cc(C(C)(C)C)c1O` showed a melting point of 120 to 122 °C.
Take `O=C(O)Cn1c(=S)c2ccccc2n(Cc2ccc(Cl)cc2Cl)c1=O`: the melting point was in the range of 220 to 221 °C.
`CN(c1ccccc1)S(=O)(=O)c1ccc(C=CC(C)(O)C(F)(F)F)cc1` (configuration not stated) returned a melting point of 146 to 148 °C.
Under `CCOc1c(C#N)oc2c3ccccc3n(-c3ccccc3)c12` stands 121 to 122 °C; under `COc1ccc(C2Cc3ccccc3-c3nc(N)c4ccccc4c32)c(OC)c1OC` (configuration not stated), 283 °C.
`CCN(CC)CCOc1cccc2c1c1cccc(Cl)c1n2Cc1ccc(F)cc1`: the melting point was in the range of 104 to 106 °C.
With `O=C(C(CCO)N1CCCC1=O)N1CCOCC1` (configuration not stated) the figure was 105 to 106 °C.
Under `O=C(Nc1cc(C(F)(F)F)on1)c1ccccc1` stands 152 to 154 °C.
Under `CCOC(=O)CNc1ccc2ccccc2c1` stands 83 to 84 °C; under `Cc1ccc(C(=O)Nc2cccc(C(F)(F)F)c2)cc1/C=C/n1cnc2c(NC3CC3)ncnc21`, 201 °C.
The compound `CC(=O)NC1=NCC(c2ccccc2)CN1` (configuration not stated) displayed a melting point of 246 to 249 °C.
With `CSc1ccc(-n2cnc3ccc(-c4nnc(C)o4)cc32)cc1` the figure was 202 to 204 °C.
With `CSC(N)=C(CCN1CCC(c2noc3cc(F)ccc23)CC1)[N+](=O)[O-]` the figure was 150 to 154 °C; with `Cn1c(=O)c(C(=O)O)c(-c2ccccc2Cl)c2cccnc21`, 178 to 180 °C.
In the case of `O=S(=O)(Nc1cccc(OCc2csc(-c3ccccc3)n2)c1)C(F)(F)F`, the melting point is 113 to 115 °C.
`COC(=O)CCc1cc2cc(Cl)ccc2n1S(=O)(=O)c1cccc(C)c1` showed a melting point of 105 to 108 °C.
Compound `N#Cc1ccc(N(Cc2ccc(OCc3ccccc3)cc2)n2cncn2)cc1-c1ccccc1` registered a melting point of 112 to 113 °C.
With `Nc1cc(C(=O)O)cc(S(N)(=O)=O)c1Oc1ccccc1` the figure was 252 to 253 °C; with `CSCCOc1ccccc1NN`, 72.5 to 74.5 °C; with `CCCc1c(OCCCCCCc2ccc(CCCCC(=O)O)cc2CCC(=O)O)ccc2c1OCCC2=O`, 108 to 109 °C.
Under `CCOC(=O)CCNC(=O)C(Cc1ccc(-c2ccccc2)cc1)N(CP(=O)(O)O)C(OC(=O)Cc1ccccc1)C(C)C` (configuration not stated) stands 148 to 150 °C.
With `O=C1OCCC1Nc1ccc(Nc2ccccc2)cc1` (configuration not stated) the figure was 142 to 143 °C; with `CCC1(Cc2ccccc2)C(=O)N(C)C(=Cc2ccccc2C#N)C(=O)N1C` (configuration not stated), 120 °C; with `O=c1[nH]c2cc(N3CCCC3)c(F)cc2c(=O)n1O`, over 250 °C.
In the case of `CCN1C(=O)C(C)(C)C(=O)N(C)c2cc(CN(CCn3cc(C)c4occc4c3=O)Cc3cccnc3COC)ccc21`, the melting point lay within 104 to 111 °C.
`O=C(CCl)Nc1ccc2c(c1NC(=O)c1ccccc1)C(=O)c1ccccc1C2=O`: the melting point lay within 203 to 204 °C.
`O=C(CNC(=O)C1CCCCC1)c1ccccc1`: the melting point was 114 to 115 °C.
As to `COc1ccccc1C1CC(=O)c2c(C)coc2C1` (configuration not stated), the melting point was 79 to 80 °C.
With `O=C(Nc1cccc2c(=O)cc(-c3nnnn3O)oc12)c1ccc(OCCCCc2ccccc2)cc1` the figure was 238 to 240 °C; with `O=C(Nc1cccc(OCc2cccnc2)c1)N1CCCC1`, 138 to 140 °C; with `COCC(=O)Nc1cccc(-n2nc(OC)c(=O)n(Cc3ccc(Cl)cc3)c2=O)c1`, 143 °C.
With `Cc1nc(COc2ccc(Cn3cc(CCC(=O)O)c(-c4ccccc4)c3)cc2)cs1` the figure was 113 to 114 °C.
With `N#CC(C#N)=C(NC1CCN(Cc2ccccc2)CC1)NC1CCN(Cc2ccccc2)CC1` the figure was 147 to 148 °C.
Turning to `CN1C(=O)CCC2(C)C3CCC4(C)C(Oc5ccc([N+](=O)[O-])cc5)CCC4C3CCC12` (configuration not stated), the melting point lay in the range of 183 to 184 °C.
Under `O=C1c2cc(OCc3ccc4ccccc4n3)ccc2OCC1OCc1ccccc1` (configuration not stated) stands 113 to 115 °C.
With `COc1cc2c(c(N3CCN(C)CC3)c1)OC(C(=O)Nc1ccc(N3CCN(C)CC3)cc1)CC2` (configuration not stated) the figure was 180 to 190 °C; with `CCCn1c(=O)c2cc(C(=O)OCC)cn2c2ccccc21`, 143 to 144 °C.
The compound `CCCC(=O)c1c(C(C)(C)C)cc(C=[N+]([O-])C(C)(C)C)cc1C(C)(C)C` registered a melting point of 217 to 236 °C.
With `Cc1[nH]cnc1/C=C/C(=O)c1coc2ccccc12` the figure was 192 to 193 °C; with `CCC(c1cc(C(=O)Nc2ccc(-c3ccc(C(=O)NS(C)(=O)=O)cc3C)cc2)ccc1OC)N(C)C` (configuration not stated), 253 to 254 °C.
With `OC1CSC(Oc2cnccc2C(F)(F)F)C(O)C1O` (configuration not stated) the figure was 191 °C.
Under `O=C(O)C(O)c1cccs1` (configuration not stated) stands 75 °C; under `O=C(O)c1ccccc1Nc1ccc(CCCCc2ccc(Cl)c(Cl)c2)cc1`, 98 to 105 °C.
`CC(=O)C1=C(O)CC(C)OC1=O` (configuration not stated) came in with a melting point of 96 to 98 °C.
Compound `COc1cc(-c2ccc(F)cc2)nc(-c2ccccn2)n1` came in with a melting point of 97 to 98 °C.
`COC(=O)C1(C)Cc2c(OC)ccc(OC)c2CO1` (configuration not stated): the melting point was 73 to 74.5 °C.
With `O=C(/C=C/c1cccc(C(F)(F)F)c1)NC1CC1` the figure was 98 °C.
Consider `N#Cc1cc(-c2ccoc2)c2ccc(COc3cc(F)cc(-c4cccs4)c3)cc2n1`, for which the melting point lay in the range of 181 to 183 °C.
Under `O=C(Nc1cccc(Br)c1)Oc1ccc2ncccc2c1` stands 260 °C.
